From US10821099B2, “Use of tradipitant in motion sickness” (Vanda Pharmaceuticals Inc., priority 2018, dated 2020)
Like-named read-outs stand apart in the source and are kept apart here.

How the values were obtained:
[1] = test system: NK-1 agonist (GR73632)-induced foot-tapping behavior; assay: NK-1 agonist (GR73632, icv)-induced foot-tapping behavior in gerbils; format: in vivo, Mongolian gerbil
Description: Immediately after injection, animals are placed individually into isolated chambers with pressure-sensitive velocimeter platform floors (San Diego Instruments acoustic startle apparatus) that detect and quantify vibration. The San Diego Instruments “SR” DOS-based computer program is used on a PC to record the number of foot-taps over the following 6 to 10 minutes, beginning 30 seconds after the floor is lightly tapped. Raw data are converted with a Microsoft® Excel® (Microsoft® and Excel® are registered trademarks of Microsoft Corp., Redmond, Wash.) macro that determines the number of events over threshold (125) in each 250-millisecond time bin over the 5.5 minutes following onset of observation. The total number and average intensity of events over the duration is determined. Total number of taps is analyzed with one-way ANOVA and post-hoc Dunnett's test using JMP statistical software. A dose-response curve (with doses of 0.3, 1, 3 and 10 pmols, icv) is initially generated with the NK-1 agonist GR73632. […] NK-1 antagonists are tested for their ability to attenuate GR73632-induced foot tapping. NK-1 antagonists are administered (po) via oral feeding tube at doses and time points specified in each experiment. All animals receive only one dose of NK-1 antagonists in all tests. NK-1 antagonists are administered at multiple doses (at least 3; one dose per animal) and response to GR73632 is measured. NK-1 receptor antagonists are administered at multiple pre-treatment times (one administration per animal) including at 0.5, 1, 2, 4, 7, 16, and 24 hours prior to GR73632 injection. GR73632 (Peninsula Labs, CA) is dissolved in saline. Tradipitant is dissolved in 1% CMC/0.5% SLS/0.085% PVP vehicle.

[2] = test system: panel of 74 other receptors, enzymes, and ion channels; assay: Binding panel of 74 other receptors, enzymes and ion channels
NK-2 receptor = target: T1, NK-2 receptor (Homo sapiens, UniProt P21452); assay: NK-2 receptor inhibition; format: binding
T1 sequence (P21452 1-398): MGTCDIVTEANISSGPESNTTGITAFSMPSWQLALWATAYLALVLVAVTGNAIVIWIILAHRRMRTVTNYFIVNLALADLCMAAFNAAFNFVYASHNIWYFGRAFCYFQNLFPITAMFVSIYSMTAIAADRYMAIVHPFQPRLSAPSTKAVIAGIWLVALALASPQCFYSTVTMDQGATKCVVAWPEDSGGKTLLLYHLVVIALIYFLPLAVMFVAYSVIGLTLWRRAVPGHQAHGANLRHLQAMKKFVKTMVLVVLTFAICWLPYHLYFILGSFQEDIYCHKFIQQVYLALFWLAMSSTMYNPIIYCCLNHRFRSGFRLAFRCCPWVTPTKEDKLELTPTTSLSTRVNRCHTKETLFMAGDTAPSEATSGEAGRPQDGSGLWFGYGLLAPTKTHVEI

NK-3 receptor = target: T2, NK-3 receptor (Homo sapiens, UniProt P29371); assay: NK-3 receptor inhibition; format: binding
T2 sequence (P29371 1-465): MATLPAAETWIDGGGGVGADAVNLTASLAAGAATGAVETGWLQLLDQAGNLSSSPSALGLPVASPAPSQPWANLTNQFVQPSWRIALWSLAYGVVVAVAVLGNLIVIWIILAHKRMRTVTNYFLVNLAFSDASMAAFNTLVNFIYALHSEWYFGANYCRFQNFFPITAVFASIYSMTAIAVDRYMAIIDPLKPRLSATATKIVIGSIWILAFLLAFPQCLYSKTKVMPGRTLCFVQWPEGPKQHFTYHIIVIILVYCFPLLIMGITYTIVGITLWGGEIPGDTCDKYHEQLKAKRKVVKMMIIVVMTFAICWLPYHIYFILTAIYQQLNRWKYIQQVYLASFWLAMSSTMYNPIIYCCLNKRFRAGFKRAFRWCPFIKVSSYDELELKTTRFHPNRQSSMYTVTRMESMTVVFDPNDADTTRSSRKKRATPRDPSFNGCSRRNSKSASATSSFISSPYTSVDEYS

[3] = test system: apomorphine-induced emesis; assay: Emetic challenge study (apomorphine-induced emesis) in beagle dogs; format: in vivo, beagle dog; details: each dose tested (0.3, 1.0, and 3.0 mg/kg)
Description: Each animal is administered a different dose on a particular dosing day, so that each dose of tradipitant, aprepitant, and apomorphine alone is represented. Over the five (5) weeks of the study, each animal receives each of the treatments, but only one per week. The purpose of this study is to determine if tradipitant suppresses apomorphine-induced emesis.
(§1) All animals are dosed over a period of five (5) weeks, with each dog receiving one of five different treatments on each day of dosing. […] In cases where apomorphine is administered alone, without prior treatment with tradipitant or aprepitant, apomorphine is given at approximately the same time as when given in combination with tradipitant or aprepitant.
All dogs are fasted overnight prior to each treatment day and then fed approximately one (1) hour after oral dosing (approximately one (1) hour prior to administration of apomorphine). Individual doses are adjusted weekly for changes in body weight.
The dose regimen consists of a 5×5 Latin square design, in which each subject receives 1 dose or dose combination per week (6 day washout) as shown in Table 3 below.

[4] = Plasma concentration of tradipitant 2 hours post-dose in dogs; format: in vivo; details: male, beagle, dog, oral, read-out: Concentration of tradipitant in plasma, Mean (SD)
Description: as §1

[5] = test system: NK-1 agonist (GR73632)-induced vocalization; assay: GR73632-induced vocalization in guinea pigs; format: in vivo, guinea pig
Description: Male Dunkin/Hartley guinea pigs (200 to 250 grams) are orally administered either vehicle or an NK-1 antagonist. Approximately 45 minutes later (for dose response studies), the animals are anesthetized and 0.1 nmol of GR73632 (SP analog) in a vehicle volume of 5 μl is injected into the cerebral ventricle at the intersection of bregma and the midline of the skull. Animals are placed in a dark testing chamber located inside of a sound attenuation cubicle and vocalizations are recorded for 30 minutes following recovery from anesthesia. The time spent vocalizing is quantified for each animal. In the duration of action study, 0.1 mg/kg of tradipitant or vehicle solution is administered orally and then 2, 4, or 7 hours later, 0.1 nmol of GR73632 is administered into the cerebral ventricle as described above. Vocalizations are recorded and quantified as indicated above. Vehicle solutions are either CMC (FIG. 4 data) or an ethanol/emulphor solution (FIGS. 5 and 6). Data is analyzed using one-tailed t-tests.

NK-1 receptor [6] = target: T3, NK-1 receptor (Homo sapiens, UniProt P25103); assay: SP-induced mobilization of intracellular calcium in U373 cells; format: cell-based; design: mobilization of intracellular calcium in U373 cells; endogenous in cells; host or cells: U373 cells
NK-1 receptor [7] = target: T3, NK-1 receptor; assay: [125I] substance P binding to the NK-1 receptor, IM-9 human cell membrane binding; design: NK-1 receptor expressed by IM-9 cells; endogenous in cells; host or cells: IM-9 human cells (membranes); details: Table 1
[8] = test system: vomiting due to motion sickness; details: crossover study; cited from earlier work

T3 sequence (P25103 whole entry): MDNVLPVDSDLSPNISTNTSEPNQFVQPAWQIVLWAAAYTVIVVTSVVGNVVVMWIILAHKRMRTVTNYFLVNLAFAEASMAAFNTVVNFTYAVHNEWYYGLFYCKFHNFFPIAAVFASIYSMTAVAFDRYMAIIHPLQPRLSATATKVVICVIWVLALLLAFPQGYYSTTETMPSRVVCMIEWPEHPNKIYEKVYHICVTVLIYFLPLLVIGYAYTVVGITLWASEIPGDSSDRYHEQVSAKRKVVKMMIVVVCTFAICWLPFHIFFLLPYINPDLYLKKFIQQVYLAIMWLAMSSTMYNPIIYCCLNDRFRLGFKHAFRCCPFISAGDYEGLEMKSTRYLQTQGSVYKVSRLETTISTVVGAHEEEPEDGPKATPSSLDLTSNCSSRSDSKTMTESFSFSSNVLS

In the case of C[C@@H](O[C@H]1OCCN(Cc2n[nH]c(=O)[nH]2)[C@H]1c1ccc(F)cc1)c1cc(C(F)(F)F)cc(C(F)(F)F)c1 [Aprepitant, reference compound], the “time after administration up to which foot-tapping is inhibited” value ([1]; 1 mg/kg) is reported as “up to 24 hours”.
In the case of O=C(c1ccccc1Cl)c1cccnc1-c1nnn(Cc2cc(C(F)(F)F)cc(C(F)(F)F)c2)c1-c1ccncc1 [Tradipitant, {2-[1-(3,5-bistrifluoromethylbenzyl)-5-pyridin-4-yl-1H-[1,2,3]triazol-4-yl]-pyridin-3-yl}-(2-chlorophenyl)-methanone], the “activity in panel of 74 additional receptors, enzymes, and ion channels including NK-2 and NK-3 receptors” value [2] is reported as “No significant activity”, the inhibition of binding ([2]; test concentration of 1 μM) is reported as no more than 50% and the “inhibition at the NK-2 receptor” value (NK-2 receptor) is reported as “no significant inhibition”. The “inhibition at the NK-3 receptor” value (NK-3 receptor) was “no significant inhibition”, the “time after administration up to which foot-tapping is significantly inhibited” value ([1]; 0.1 mg/kg, po) was “up to 7 hours” and the “effect on foot-tapping by 16 hours after administration” value ([1]; 0.1 mg/kg, po, 16 hours) was “significantly diminished”. For the same compound, the inhibition at 1 mg/kg ([1]; Meriones unguiculatus, po, 1 mg/kg, 16 hours after administration) was greater than 50%, the ED50 ([1]; Meriones unguiculatus, oral, 2 hours after administration, GR73632 3 pmol icv, read-out: ED50, inhibition of foot-tapping behavior) was 0.03 ± 0.004 mg/kg and the “efficacy against apomorphine-induced emesis” value [3] was “effective against apomorphine-induced emesis”. The concentration at 2 h ([4]; 0.3 mg/kg, 0.3 mg/kg oral) was 57.9 ng/mL, the concentration at 2 h ([4]; 1 mg/kg, 1.0 mg/kg oral) was 133 ng/mL and the concentration at 2 h ([4]; 3 mg/kg, 3.0 mg/kg oral) was 300 ng/mL. For the same compound, the “suppression of agonist-induced vocalization at 7 hours” value ([5]; 0.1 mg/kg oral, 7 hours after administration) was “significantly active”, the duration of activity ([5]; administered orally) was “exceeds 7 hours” and the “inhibitory activity on vocalization at and below 0.1 mg/kg” value ([5]; at and below 0.1 mg/kg oral, FIG. 6) was “retains significant inhibitory activity”. For the same compound, the “inhibition of agonist-induced vocalization” value ([5]; oral doses of 10, 1.0, 0.1 and 0.05 mg/kg (each p<0.001), FIG. 4) was “significant inhibition”, the “minimum effective dose (MED), inhibition of vocalization” value ([5]; oral, p<0.001 compared to controls) was 0.025 mg/kg and the Kb (NK-1 receptor [6]) was 0.095 nM. For the same compound, the Ki (NK-1 receptor [7]) was 0.062 nM.
In the case of COc1ccc(C(C)(C)C)cc1CN[C@H]1C2CCN(CC2)[C@H]1C(c1ccccc1)c1ccccc1 [Maropitant], the “dogs in which the occurrence of vomiting was reduced as compared to placebo” value [8] is given as “over 75%”.
